Data as given in patent US11279714B2, “Anti-infective compounds” (priority 2014, dated 2022).
Converted amounts (≈) assume the structure as drawn.

Columns and labels:
[1] = system: Raw 264.7 cells infected with H37Rv-GFP; experiment: microbe, parasite or virus in culture; type: cell-based, M. tuberculosis; conditions: for MIC50: Mycobacterium tuberculosis, H37RV, 120 h, read-out: QIM (MIC50)
[2] = system: M. tuberculosis H37Rv expressing the green fluorescent protein (H37Rv-GFP); experiment: microbe, parasite or virus in culture; type: cell-based; conditions: for MIC50: Mycobacterium tuberculosis, H37RV, 120 h, read-out: QUM (MIC50)

SMILES | MIC50 [1] [µM] | MIC50 [2] [µM] | melting point [°C] | QIM (MIC50, uM) [1] | QUM (MIC50, uM) [2]
Cc1nc2cc(NC(=O)c3cc4sc(N5CCC(CO)CC5)nc4s3)ccc2o1 [Compound 144] | < 1 | < 1 | 196.4 | – | –
Cc1nc2cc(NC(=O)c3cc4sc(N5CCC(C(=O)NCc6ccccc6)CC5)nc4s3)ccc2o1 [Compound 186] | < 1 | > 20 | 264.9 | – | –
COc1ccc(NC(=O)c2cc3sc(N4CCC(OCc5ccccc5)CC4)nc3s2)cc1 [Compound 77] | < 1 | 1 to 20 (≈ 0.48 to 9.59 µg/mL) | 190.3 | – | –
COc1ccc(NC(=O)c2cc3sc(N4CCC(C(N)=O)CC4)nc3s2)cc1 [Compound 126] | > 20 | 1 to 20 (≈ 0.417 to 8.33 µg/mL) | 276.1 | – | –
COC(=O)c1ccc(CCNC(=O)c2cc3sc(N4CCCCC4)nc3s2)cc1 [Compound 43] | < 1 | 1 to 20 (≈ 0.43 to 8.59 µg/mL) | 212.9 | – | –
CN(C)C(=O)C1CCN(c2nc3sc(C(=O)Nc4ccc(F)nc4)cc3s2)CC1 [Compound 137] | 1 to 20 (≈ 0.434 to 8.67 µg/mL) | < 1 | 295.9 | – | –
COc1ccc(NC(=O)c2cc3sc(NC4CCCC4)nc3s2)cc1 [Compound 90] | < 1 | < 1 | 239.3 | – | –
COc1ccc(NC(=O)c2cc3sc(N)nc3s2)cc1 [Compound 64] | 1 to 20 (≈ 0.305 to 6.11 µg/mL) | > 20 | 260 | – | –
Cn1ncc2ccc(NC(=O)c3cc4sc(N5CCOCC5)nc4s3)cc21 [Compound 131] | > 20 | > 20 | 288 | – | –
COC1CCN(c2nc3sc(C(=O)Nc4ccc5oc(C)nc5c4)cc3s2)CC1 [Compound 124] | < 1 | < 1 | 237.9 | – | –
COc1ccc(NCc2cc3sc(N4CCCCC4)nc3s2)cc1 [Compound 69] | > 20 | > 20 | 105 | – | –
COC(=O)C1CCC(NC(=O)c2cc3sc(N4CCCCC4)nc3s2)CC1 (stereo not drawn) [Compound 60] | 1 to 20 (≈ 0.408 to 8.15 µg/mL) | 1 to 20 (≈ 0.408 to 8.15 µg/mL) | 74 | – | –
COc1ccc(NC(=O)c2csc3nc(N4CCCCC4)sc23)cc1 [Compound 73] | > 20 | > 20 | 209.8 | – | –
Cc1nc2cc(NC(=O)c3sc4nc(N5CCOCC5)sc4c3C)ccc2o1 [Compound 163] | > 20 | > 20 | 226 | – | –
CCC1COCCN1c1nc2sc(C(=O)Nc3ccc4oc(C)nc4c3)cc2s1 (stereo not drawn) [Compound 151] | < 1 | 1 to 20 (≈ 0.429 to 8.57 µg/mL) | 176 | – | –
O=C(Nc1ccc(N2CCC(c3ccc(Cl)cc3)CC2)cc1)c1cc2sc(N3CCOCC3)nc2s1 [Compound 190] | > 20 | > 20 | 281.1 | – | –
COc1ccc(CN(c2nc3sc(C(=O)Nc4ccc(OC)cc4)cc3s2)C(C)C)cc1 [Compound 121] | < 1 | > 20 | 131 | – | –
COc1ccc(NC(=O)c2cc3sc(N4CCCC(OCc5ccccc5)C4)nc3s2)cc1 (stereo not drawn) [Compound 95] | < 1 | > 20 | 169 | – | –
Cc1nnc(-c2ccc(NC(=O)c3cc4sc(N5CCC(O)CC5)nc4s3)cc2)o1 [Compound 123] | > 20 | > 20 | 334.4 | – | –

SMILES | MIC50 [1] [µM] | MIC50 [2] [µM] | melting point [°C] | QIM (MIC50, uM) [1] | QUM (MIC50, uM) [2]
COc1ccc(CNC(=O)c2cc3sc(N4CCCCC4)nc3s2)cc1 [Compound 59] | > 20 | > 20 | 142 | – | –
O=C(Nc1ccc(CN2CCN(c3ccc(Cl)cc3)CC2)cc1)c1cc2sc(N3CCOCC3)nc2s1 [Compound 199] | < 1 | 1 to 20 (≈ 0.554 to 11.1 µg/mL) | 249.9 | – | –
O=C(Nc1ccc(F)nc1)c1cc2sc(N3CCOCC3)nc2s1 [Compound 84] | < 1 | < 1 | 262.3 | – | –
Cc1nc2cc(NC(=O)c3sc4nc(N5CCOCC5)sc4c3-c3ccccc3)ccc2o1 [Compound 166] | > 20 | > 20 | 285 | – | –
O=C(Nc1ccccc1)c1cc2sc(N3CCCCC3)nc2s1 [Compound 46] | < 1 | 1 to 20 (≈ 0.343 to 6.87 µg/mL) | 259.1 | – | –
Cn1cnc2cc(NC(=O)c3cc4sc(N5CCOCC5)nc4s3)ccc21 [Compound 116] | 1 to 20 (≈ 0.4 to 7.99 µg/mL) | > 20 | 291 | – | –
O=C(c1cc2sc(N3CCOCC3)nc2s1)N1CCC(Cc2ccc(Cl)cc2)CC1 [Compound 173] | > 20 | > 20 | 167.2 | – | –
Cc1cc2cc(NC(=O)c3cc4sc(N5CCOCC5)nc4s3)ccc2o1 [Compound 135] | < 1 | 1 to 20 (≈ 0.399 to 7.99 µg/mL) | 231.3 | – | –
COc1ccc(NC(=O)c2cc3sc(NCc4ccc(OC)nc4)nc3s2)cc1 [Compound 104] | < 1 | < 1 | 230.9 | – | –
Cc1nc2cc(NC(=O)c3cc4sc(N5CCC(C(=O)N(C)C)C5)nc4s3)ccc2o1 (stereo not drawn) [Compound 192] | 1 to 20 (≈ 0.456 to 9.11 µg/mL) | 1 to 20 (≈ 0.456 to 9.11 µg/mL) | 274 | – | –
Cc1nc2cc(NC(=O)c3cc4sc(N5CCOCC5)nc4s3)c(F)cc2o1 [Compound 181] | > 20 | > 20 | 287 | – | –
O=C(Nc1ccc(F)c(F)c1)c1ccc2nc(N3CCCCC3)ccc2c1 [Compound 16] | > 20 | > 20 | 194 | – | –
Cc1nc2cc(NC(=O)N3CCc4sc(N5CCOCC5)cc4C3)ccc2o1 [Compound 191] | > 20 | > 20 | 171.7 | – | –
Cc1nc2ccc(NC(=O)c3cc4sc(N5CCOCC5)nc4s3)cc2o1.Cl [Compound 86] | – | – | 272.2 | +++ (+++ indicates <1 uM) | +++ (+++ indicates <1 uM)
Cc1nc2ccc(NC(=O)c3cc4sc(N5CCOCC5)nc4s3)cc2o1 [Compound 85] | < 1 | < 1 | 273.6 | – | –
O=C(Nc1ccc(Cl)cc1)c1cc2sc(N3CCCCC3)nc2s1 [Compound 45] | < 1 | 1 to 20 (≈ 0.378 to 7.56 µg/mL) | 275.2 | – | –
O=C(Nc1ccc(-c2ccccc2)cc1)c1cc2sc(N3CCCCC3)nc2s1 [Compound 39] | < 1 | > 20 | 231.1 | – | –
O=C(Nc1ccc(C(F)(F)F)cc1)c1cc2sc(N3CCCCC3)nc2s1 [Compound 41] | < 1 | > 20 | 289.2 | – | –
CC(C)(C)OC(=O)Nc1cc2sc(N3CCCCC3)nc2s1 [Compound 81] | > 20 | > 20 | 157 | – | –

SMILES | MIC50 [1] [µM] | MIC50 [2] [µM] | melting point [°C] | QIM (MIC50, uM) [1] | QUM (MIC50, uM) [2]
COc1ccc(NC(=O)c2cc3sc(N4CCCC(O)C4)nc3s2)cc1 (stereo not drawn) [Compound 96] | < 1 | < 1 | 238 | – | –
COc1ccc(NC(=O)c2cc3sc(N4CCCC(N)C4)nc3s2)cc1 (stereo not drawn) [Compound 119] | < 1 | > 20 | 232 | – | –
Nc1ccc(OC(=O)c2cc3nc(N4CCCCC4)sc3s2)cc1 [Compound 9] | > 20 | > 20 | 153 | – | –
CN(C)C(=O)C1CCN(c2nc3sc(C(=O)Nc4ccc(F)cc4)cc3s2)CC1 [Compound 136] | < 1 | < 1 | 296.2 | – | –
Cc1cnc(-c2ccc(NC(=O)c3cc4sc(N5CCOCC5)nc4s3)cc2)o1 [Compound 154] | < 1 | < 1 | 287.3 | – | –
COc1ccc(CNc2nc3sc(C(=O)Nc4ccc(OC)cc4)cc3s2)cc1 [Compound 63] | < 1 | > 20 | 243 | – | –
COc1ccc(CCNC(=O)c2cc3nc(N4CCCCC4)sc3s2)cc1 [Compound 22] | 1 to 20 (≈ 0.402 to 8.03 µg/mL) | 1 to 20 (≈ 0.402 to 8.03 µg/mL) | 188 | – | –
Cc1nc2cc(NC(=O)c3cc4sc(N5CCOC(c6ccccc6)C5)nc4s3)ccc2o1 (stereo not drawn) [Compound 174] | < 1 | 1 to 20 (≈ 0.477 to 9.53 µg/mL) | 223.5 | – | –
Cc1nc2c(NC(=O)c3cc4sc(N5CCOCC5)nc4s3)cccc2o1 [Compound 102] | > 20 | > 20 | 209.3 | – | –
O=C(Nc1cccc(OCc2ccccc2)c1)c1cc2sc(N3CCOCC3)nc2s1 [Compound 109] | > 20 | > 20 | 223.4 | – | –
Cc1nc2cc(NC(=O)c3cc4sc(N5CCC(C(=O)N(C)C)CC5)nc4s3)ccc2o1 [Compound 138] | < 1 | < 1 | 284.2 | – | –
CCc1ccc(NC(=O)c2cc3sc(N4CCCCC4)nc3s2)cc1 [Compound 38] | < 1 | 1 to 20 (≈ 0.372 to 7.43 µg/mL) | 198 | – | –
O=C(Nc1ccc(O)cc1)c1cc2sc(N3CCCCC3)nc2s1 [Compound 97] | 1 to 20 (≈ 0.359 to 7.19 µg/mL) | 1 to 20 (≈ 0.359 to 7.19 µg/mL) | 246 | – | –
Cc1nc2ccc(NC(=O)c3cc4sc(N5CCCCC5)nc4s3)cc2o1 [Compound 48] | < 1 | < 1 | 259.2 | – | –
COc1ncc(NC(=O)c2cc3sc(N4CCCCC4)nc3s2)cn1 [Compound 55] | < 1 | > 20 | 219 | – | –
O=C(Nc1ccc(OC(F)(F)F)cc1)c1cc2sc(N3CCCCC3)nc2s1 [Compound 58] | < 1 | 1 to 20 (≈ 0.427 to 8.55 µg/mL) | 239 | – | –
Cn1ccc(-c2ccc(NC(=O)c3cc4sc(N5CCOCC5)nc4s3)cc2)n1 [Compound 145] | < 1 | 1 to 20 (≈ 0.426 to 8.51 µg/mL) | 314 | – | –
Cc1nc2cc(NC(=O)c3cn4nc(N5CCOCC5)sc4n3)ccc2o1 [Compound 189] | > 20 | > 20 | 311 | – | –
